# Measured values reported in article PMC5717258, “Bioaccumulation of pharmaceuticals and personal care product chemicals in fish exposed to wastewater effluent in an urban wetland” (Scientific Reports, 2017).
# Tests used:
# [1] = Jordan Harbour brown bullhead, wet weight
# Description: Plasma from 9 individual male fish (500 µL/individual) was pooled to yield 3 samples for PPCP analysis. […] Plasma from 6 individual carp (2.3–3.5 g) from each location was selected for PPCP analysis. […] Plasma samples were frozen (−80 °C) until analysis.
# A total of 20 fish plasma samples from the pooled caged fish (7) and the wild fish (13) along with 12 water samples were selected for analysis. […] A full list of analytes is provided in Supplementary Information. Mass labelled^13C-, or deuterated surrogate internal standards were used for quantification of all analytes via the isotope dilution/surrogate standard quantitation method. Prior to extraction and/or clean-up procedures, aqueous samples were adjusted to pH 2.0, spiked with extraction surrogate standards, then adjusted to pH 4 using tetrasodium ethylenediamine-tetraacetate dihydrate. Plasma samples (2.3–2.5 g) were spiked with extraction surrogate standards, sonicated with 20 mL acetonitrile, then diluted with ultra-pure water to 200 mL. The extracts were cleaned up by solid phase extraction using Oasis HLB cartridges (Waters Ltd. Mississauga ON), filtered, and analyzed by liquid chromatography-electrospray ionization-tandem mass spectrometry (LC/ESI-MS/MS) in positive or negative ionization mode. The analysis of the complete list of analytes (SI Table S1) required a total of five instrumental runs.
# [2] = ref Meador et al. 18; cited from earlier work
# [3] = set-up: method as in Brown et al. 11; conditions: ref Brown et al. 11; cited from earlier work
# [4] = cited from earlier work
# [5] = set-up: method as in US EPA Chemistry Dashboard; conditions: ref US EPA Chemistry Dashboard; cited from earlier work
# [6] = human; converted from µg/mL; ref Schulz et al.[56]; cited from earlier work
# in vivo = conditions: for concentration at 21 days: goldfish (Carassius auratus)
# In short: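 Pooled caged-goldfish plasma, wild-fish plasma (2.3–2.5 g) and water samples were spiked with isotope-labelled surrogates, then extracted (acetonitrile sonication for plasma; pH-adjusted water) and cleaned up by HLB SPE. PPCPs were quantified by LC/ESI-MS/MS using isotope dilution. Non-detects were set to ½ DL when the analyte was detected in ≥2 samples.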
# [7] = Plasma bioaccumulation factor (BAFP), goldfish; type: in vivo, goldfish (Carassius auratus); conditions: CPM2; water sample of August 2012
# In short: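 BAFP in goldfish was calculated as plasma concentration (ng/g × 1000) divided by water concentration (ng/L).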
structure (smiles),measurement,setting,value
Cc1ccc(C)c(OCCCC(C)(C)C(=O)O)c1 [Gemfibrozil],"plasma concentration, JH-BB",[1],< 0.57 ng/g
same,"whole fish concentration, sculpin",[2],< mdl
same,"plasma concentration, rainbow trout",[3],<8-210 ng/g wet weight or ng/mL for plasma
same,"Cootes carp plasma, range of concentrations","Cootes Paradise Marsh, range",0.16 to 0.83 ng/g
same,"wild goldfish plasma, range of concentrations","Cootes Paradise Marsh, range",0.15–0.15 ng/g
same,"plasma concentration, CPM-C 01","Cootes carp 01, 2011, male, wet weight",0.158 ng/g
same,"plasma concentration, CPM-C 2","Cootes carp 2, Sep 27, 2011, male, wet weight",0.724 ng/g
same,"plasma concentration, CPM-C 10","Cootes carp 10, Sep 28, 2011, female, wet weight",0.227 ng/g
same,"plasma concentration, CPM-C 13","Cootes carp 13, Sep 28, 2011, female, wet weight",0.234 ng/g
same,"plasma concentration, CPM-C 20","Cootes carp 20, 2011, male, wet weight",0.162 ng/g
same,"plasma concentration, CPM-C 36","Cootes carp 36, Oct 3, 2011, female, wet weight",0.827 ng/g
same,"Carp plasma concentration, this study (range)",Table S7,0.16 to 0.83 ng/g
same,"Goldfish plasma concentration, this study (range)",Table S7,0.15 to 0.86 ng/g
same,"plasma concentration, carp, this study (mean)",Table S8,0.39 ng/g wet weight or ng/mL for plasma
same,"plasma concentration, goldfish, this study (mean)",Table S8,0.46 ng/g wet weight or ng/mL for plasma
same,"plasma concentration, CPM wild-01","wild goldfish sample 01, 2012, wet weight",0.147 ng/g
same,"plasma concentration, CPM wild-02","wild goldfish sample 02, 2012, wet weight",0.387 ng/g
same,"plasma concentration, CPM wild-03","wild goldfish sample 03, 2012, wet weight",0.86 ng/g
same,Salmon (whole body) concentration,"[4]; Table S7, ref Meador et al. (2016)",1.3 ng/g
same,"whole fish concentration, salmon",[4]; ref Meador et al. 18,1.3 ng/g wet weight or ng/mL for plasma
same,log Kow,[5],4.14
same,"Therapeutic ""normal"" blood-plasma/serum concentration",[6],~25000 ng/mL
same,"plasma concentration, CPM1 caged","in vivo; CPM1, 07-2014, pooled plasma, wet weight",0.15 ng/g
same,"plasma concentration, CPM3 caged","in vivo; CPM3, 07-2014, pooled plasma, wet weight",0.15 ng/g
same,concentration at 21 days,"in vivo; in vivo, plasma concentration, JH caged, Jordan Harbour reference site, 07-2014, pooled plasma, wet weight",< 0.3 ng/g
same,concentration at 21 days,"in vivo; plasma, caged goldfish plasma, range of concentrations, Cootes Paradise Marsh, range",0.15 to 0.86 ng/g
same,concentration at 21 days,"in vivo; plasma, plasma concentration, CPM1 caged, CPM1, 07-2014, pooled plasma, wet weight",0.147 ng/g
same,concentration at 21 days,"in vivo; plasma, plasma concentration, CPM2 caged, CPM2, 07-2014, pooled plasma, wet weight",0.146 ng/g
same,concentration at 21 days,"in vivo; plasma, plasma concentration, CPM3 caged, CPM3, 07-2014, pooled plasma, wet weight",0.154 ng/g
same,"BAFP, CPM2 goldfish caged",[7],27 L/kg
